Test: recombinant barcode read abundance after kanamycin selection (control-corrected) (log10(CPM+1)); higher = more efficient recombination; sequences stand for … in AGTGCAGAGAAAATCGGCCAGTTTTCTCTGCCTGCAGTCCGCATGCCGT…AGATTTATGCAGCGGACTGCCTTTCTCCCAAAGTGATAAACCGGACAGTATCATGGACCGGTTTTCCCGGTAATCCGTATTTGCAAGGTTGGTTTCACT; site = the 11-nt target
Procedure, shortened: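 Oligos holding a promoter, target, barcode and the J23119-driven first 104 bases of the bridge RNA were Gibson-cloned into a vector that supplied the other 73 bp plus a T7-inducible recombinase. This library was co-electroporated with a donor plasmid into E. coli. Two replicates went on chloramphenicol/ampicillin LB agar (control) and two on chloramphenicol/ampicillin/kanamycin with 0.1 mM IPTG. Recombination efficiency is read from averaged, control-corrected barcode counts per million at recombinant junctions, reported as log10(CPM+1).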
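Also: IS621 recombinase and bridge RNA in Escherichia coli cells.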

Sequence | recombinant barcode read abundance (log10)
CTTCAATCTTGGGTTCTAACCTGTTGCCT (site CTTCAATCTAG) | 0.267
CTTCAATCTTGGGTTCTAACCTGTTGCCT (site CTTGAATCTAG) | 0.35
CTTCAATCTTGGGTTCTAACCTGTTGCCT (site CTTTAATCTAG) | 0.0762
CTTCACCCTTGGGTTCTAACCTGTTGCCT (site CTTCAACCTAG) | 0.134
CTTCACCCTTGGGTTCTAACCTGTTGCCT (site CTTCACCCTAG) | 1.76
CTTCACCCTTGGGTTCTAACCTGTTGCCT (site CTTCAGCCTAG) | 0.117
CTTCACCCTTGGGTTCTAACCTGTTGCCT (site CTTCATCCTAG) | 0.00728
CTTCGAGCTTGGGTTCTAACCTGTTGCTG (site CTTCGAGCTCA) | 1.52
CTTCGAGCTTGGGTTCTAACCTGTTGCTG (site CTTCGAGCTCC) | 0.193
CTTCGAGCTTGGGTTCTAACCTGTTGCTG (site CTTCGAGCTCG) | 0.184
CTTCGAGCTTGGGTTCTAACCTGTTGCTG (site CTTCGAGCTCT) | 0.294
CTTCGCACTTGGGTTCTAACCTGTTGCCT (site CATCGCACTAG) | 0.0381
CTTCGCACTTGGGTTCTAACCTGTTGCCT (site CCTCGCACTAG) | 0.0814
CTTCGCACTTGGGTTCTAACCTGTTGCCT (site CGTCGCACTAG) | 0.0111
CTTCGCACTTGGGTTCTAACCTGTTGCCT (site CTTCGCACTAG) | 0.0708
CTTCGGGCTTGGGTTCTAACCTGTTGCAT (site CTTCGGGCTAT) | 1.26
CTTCGGGCTTGGGTTCTAACCTGTTGCAT (site CTTTGAGCTAT) | 0.242
CTTGCATCTTGGGTTCTAACCTGTTGCCT (site CTTGCATCTAG) | 0.383
CTTGCATCTTGGGTTCTAACCTGTTGCCT (site GGGCACACTGT) | 0.293
CTTGGAACTTGGGTTCTAACCTGTTGCCT (site CTTGGAACTAG) | 0.224
CTTGGAACTTGGGTTCTAACCTGTTGCCT (site CTTGGACCTAG) | 0.242
CTTGGAACTTGGGTTCTAACCTGTTGCCT (site CTTGGAGCTAG) | 0
CTTGGAACTTGGGTTCTAACCTGTTGCCT (site CTTGGATCTAG) | 0.228
CTTGGATCTTGGGTTCTAACCTGTTGCCT (site CTTGGAACTAG) | 0.142
CTTGGATCTTGGGTTCTAACCTGTTGCCT (site CTTGGACCTAG) | 0.116
CTTGGATCTTGGGTTCTAACCTGTTGCCT (site CTTGGAGCTAG) | 0.0716

Sequence | recombinant barcode read abundance (log10)
CTTGGATCTTGGGTTCTAACCTGTTGCCT (site CTTGGATCTAG) | 0.913
CTTGGGCCTTGGGTTCTAACCTGTTGCCT (site CATGGGCCTAG) | 0.0436
CTTGGGCCTTGGGTTCTAACCTGTTGCCT (site CCTGGGCCTAG) | 0.16
CTTGGGCCTTGGGTTCTAACCTGTTGCCT (site CGTGGGCCTAG) | 0.186
CTTGGGCCTTGGGTTCTAACCTGTTGCCT (site CTTGGGCCTAG) | 0.417
CTTTGAACTTGGGTTCTAACCTGTTGCTA (site CTTTGAACTTA) | 0.016
CTTTGAACTTGGGTTCTAACCTGTTGCTA (site TCGATCCCTAC) | 0.102
CTTTGGCCTTGGGTTCTAACCTGTTGCTT (site CCTTGGGCTAA) | 0.439
CTTTGGCCTTGGGTTCTAACCTGTTGCTT (site CTTTGGCCTAA) | 0.0961
CTTTGTGCTTGGGTTCTAACCTGTTGCCT (site CTTAGGGCTAG) | 0.32
CTTTGTGCTTGGGTTCTAACCTGTTGCCT (site CTTTGTGCTAG) | 0.129
GAAACTGCTTGGGTTCTAACCTGTTGCCT (site GAAACTGCTAG) | 0.736
GAAACTGCTTGGGTTCTAACCTGTTGCCT (site GACACTGCTAG) | 0.211
GAAACTGCTTGGGTTCTAACCTGTTGCCT (site GAGACTGCTAG) | 0.158
GAAACTGCTTGGGTTCTAACCTGTTGCCT (site GATACTGCTAG) | 0.0634
GAAAGCTCTTGGGTTCTAACCTGTTGCGT (site GAAAGCTCTAC) | 2.99
GAAAGCTCTTGGGTTCTAACCTGTTGCGT (site TCCTATGCTCG) | 0.0782
GAAAGTGCTTGGGTTCTAACCTGTTGCCT (site CAAAGTGCTAG) | 0.0857
GAAAGTGCTTGGGTTCTAACCTGTTGCCT (site GAAAGTGCTAG) | 1.23
GAAATAACTTGGGTTCTAACCTGTTGCGT (site AGCCCTCCTCT) | 0.169
GAAATAACTTGGGTTCTAACCTGTTGCGT (site GAAATAACTAC) | 0.995
GAAATGTCTTGGGTTCTAACCTGTTGCCT (site GAAATGTCTAG) | 1.75
GAAATGTCTTGGGTTCTAACCTGTTGCCT (site GCAATGTCTAG) | 0.0338
GAAATGTCTTGGGTTCTAACCTGTTGCCT (site GGAATGTCTAG) | 0.262
GAAATGTCTTGGGTTCTAACCTGTTGCCT (site GTAATGTCTAG) | 0.634
GAACCTACTTGGGTTCTAACCTGTTGCGG (site GAACCTACTCC) | 1.77

Sequence | recombinant barcode read abundance (log10)
GAACCTACTTGGGTTCTAACCTGTTGCGG (site GAACCTACTTC) | 0.107
GAAGACGCTTGGGTTCTAACCTGTTGCCT (site GAAGACGCTAG) | 1.14
GAAGACGCTTGGGTTCTAACCTGTTGCCT (site GAAGCCGCTAG) | 0.315
GAAGACGCTTGGGTTCTAACCTGTTGCCT (site GAAGGCGCTAG) | 0
GAAGACGCTTGGGTTCTAACCTGTTGCCT (site GAAGTCGCTAG) | 0.126
GAAGGCGCTTGGGTTCTAACCTGTTGCCT (site GAAGACGCTAG) | 0.187
GAAGGCGCTTGGGTTCTAACCTGTTGCCT (site GAAGCCGCTAG) | 0.306
GAAGGCGCTTGGGTTCTAACCTGTTGCCT (site GAAGGCGCTAG) | 1.81
GAAGGCGCTTGGGTTCTAACCTGTTGCCT (site GAAGTCGCTAG) | 0.0553
GAAGTCCCTTGGGTTCTAACCTGTTGCCT (site AAAGTCCCTAG) | 0.558
GAAGTCCCTTGGGTTCTAACCTGTTGCCT (site CAAGTCCCTAG) | 0.848
GAAGTCCCTTGGGTTCTAACCTGTTGCCT (site GAAGTCCCTAG) | 1.82
GAAGTCCCTTGGGTTCTAACCTGTTGCCT (site TAAGTCCCTAG) | 1.22
GAAGTGCCTTGGGTTCTAACCTGTTGCCT (site GAAGAGCCTAG) | 0.272
GAAGTGCCTTGGGTTCTAACCTGTTGCCT (site GAAGCGCCTAG) | 0.0713
GAAGTGCCTTGGGTTCTAACCTGTTGCCT (site GAAGGGCCTAG) | 0.195
GAAGTGCCTTGGGTTCTAACCTGTTGCCT (site GAAGTGCCTAG) | 1.92
GAATCCTCTTGGGTTCTAACCTGTTGCCT (site AAATCCTCTAG) | 0.145
GAATCCTCTTGGGTTCTAACCTGTTGCCT (site CAATCCTCTAG) | 0.531
GAATCCTCTTGGGTTCTAACCTGTTGCCT (site GAATCCTCTAG) | 2.06
GAATCCTCTTGGGTTCTAACCTGTTGCCT (site TAATCCTCTAG) | 0.483
GAATGAGCTTGGGTTCTAACCTGTTGCCT (site CTCACGACTCT) | 0.014
GAATGAGCTTGGGTTCTAACCTGTTGCCT (site GAATGAGCTAG) | 1.43
GACAAGTCTTGGGTTCTAACCTGTTGCCT (site GAAACGTCTAG) | 0.173
GACAAGTCTTGGGTTCTAACCTGTTGCCT (site GACAAGTCTAG) | 1.14

— the supplement of paper PMC11208160
